Experimental data reported in patent publication US20240018123A1, “COMPOUND FOR INHIBITING OR DISINTEGRATING ANDROGEN RECEPTOR, AND PHARMACEUTICAL USE THEREOF” (KOREA RESEARCH INSTITUTE OF CHEMICAL TECHNOLOGY, priority 2020, published 2024).

Target: T1, Androgen receptor (AR) (Homo sapiens, UniProt P10275, T878A)
T1 construct: 5.5×10^5 LNCap cells were injected into each well of a 6-well plate; endogenous in cells; host or cells: LNCaP
T1 sequence (P10275 1-920 T878A): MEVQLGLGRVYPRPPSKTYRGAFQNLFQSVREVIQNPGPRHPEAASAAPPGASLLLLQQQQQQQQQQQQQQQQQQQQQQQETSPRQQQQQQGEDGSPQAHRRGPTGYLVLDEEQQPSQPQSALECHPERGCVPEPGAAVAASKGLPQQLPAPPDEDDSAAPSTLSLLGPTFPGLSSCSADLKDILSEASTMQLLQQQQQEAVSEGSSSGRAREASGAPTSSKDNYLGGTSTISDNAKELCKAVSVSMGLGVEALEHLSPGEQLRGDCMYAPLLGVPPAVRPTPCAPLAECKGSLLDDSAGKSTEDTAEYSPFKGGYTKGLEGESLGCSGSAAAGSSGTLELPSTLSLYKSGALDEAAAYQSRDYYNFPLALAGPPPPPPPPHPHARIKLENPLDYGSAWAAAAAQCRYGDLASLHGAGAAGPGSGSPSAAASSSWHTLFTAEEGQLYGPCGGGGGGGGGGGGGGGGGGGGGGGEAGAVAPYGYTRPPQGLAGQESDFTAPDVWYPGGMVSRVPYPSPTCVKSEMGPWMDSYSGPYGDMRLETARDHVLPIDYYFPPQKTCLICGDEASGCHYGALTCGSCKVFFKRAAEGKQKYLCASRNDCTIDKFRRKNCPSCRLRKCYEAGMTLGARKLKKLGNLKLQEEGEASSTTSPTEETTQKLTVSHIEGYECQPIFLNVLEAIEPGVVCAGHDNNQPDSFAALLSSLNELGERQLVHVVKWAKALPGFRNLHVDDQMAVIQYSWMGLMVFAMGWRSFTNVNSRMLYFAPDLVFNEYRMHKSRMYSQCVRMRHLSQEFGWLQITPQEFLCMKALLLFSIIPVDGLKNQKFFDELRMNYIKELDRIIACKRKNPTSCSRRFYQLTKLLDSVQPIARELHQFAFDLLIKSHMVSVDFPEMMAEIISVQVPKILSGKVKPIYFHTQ
Test: Assessment of AR proteolytic activity (Western blotting of LNCap cell lysates)
Assay type: cell-based
Details: 24 hours of treatment, Western blotting quantified with Image J
Experimental: Assessment of AR Proteolytic Activity
Androgen receptor (AR) proteolytic activity of the compound according to the present invention was evaluated as follows: Specifically, 5.5×10^5 LNCap cells were injected into each well of a 6-well plate. […] After 24 hours of treatment, cells were collected and lysed using RIPA Lysis buffer (50 mM Tris-HCl, pH7.5, 150 mM NaCl, 1% Triton X-100, 2 mM EDTA, 0.1% SDS, 0.5% sodium deoxycholate and protease inhibitor cocktail) to make cell lysates. Western blotting was performed, and the results were quantified using Image J program.

Structure (SMILES) | Degradation (1 μM treated in LNCaP, % AR remaining) [%]
CC1(C)C(NC(=O)c2ccc(N3CCC4(CC3)CN(CC3CN(c5ccc6c(=O)n(C7CCC(=O)NC7=O)nnc6c5)C3)C4)nc2)C(C)(C)C1Oc1ccc(C#N)c(Cl)c1 (stereo not shown) [Example 175, N-((1r,3r)-3-(3-chloro-4-cyanophenoxy)-2,2,4,4-tetramethylcyclobutyl)-6-(2-((1-(3-(2,6-dioxopiperidin-3-yl)-4-oxo-3,4-dihydrobenzo[d][1,2,3]triazin-7-yl)azetidin-3-yl)methyl)-2,7-diazaspiro[3.5]nonan-7-yl)nicotinamide] | 10
CC1(C)C(NC(=O)c2ccc(N3CC[C@H](CN4CCN(C5CCN(c6ccc7c(=O)n(C8CCC(=O)NC8=O)nnc7c6)CC5)CC4)C3)nc2)C(C)(C)C1Oc1ccc(C#N)c(Cl)c1 (stereo partly drawn) [Example 191, N-((1r,3R)-3-(3-chloro-4-cyanophenoxy)-2,2,4,4-tetramethylcyclobutyl)-6-((3R)-3-((4-(1-(3-(2,6-dioxopiperidin-3-yl)-4-oxo-3,4-dihydrobenzo[d][1,2,3]triazin-7-yl)piperidin-4-yl)piperazin-1-yl)methyl)pyrrolidin-1-yl)nicotinamide] | 33
N#Cc1ccc(O[C@H]2CC[C@@H](NC(=O)c3ccc(N4CCN(CCCOc5ccc6nnn(C7CCC(=O)NC7=O)c(=O)c6c5)CC4)nc3)CC2)cc1Cl (stereo partly shown) [Example 161, N-((1r,4r)-4-(3-chloro-4-cyanophenoxy)cyclohexyl)-6-(4-(3-((3-(2,6-dioxopiperidin-3-yl)-4-oxo-3,4-dihydrobenzo[d][1,2,3]triazin-6-yl)oxy)propyl)piperazin-1-yl)nicotinamide] | 36
CC1(C)C(NC(=O)c2ccc(C#CC3CCN(CC4CN(c5ccc6nnn(C7CCC(=O)NC7=O)c(=O)c6c5)C4)CC3)nc2)C(C)(C)C1Oc1ccc(C#N)c(Cl)c1 (stereo not shown) [Example 184, N-((1r,3r)-3-(3-chloro-4-cyanophenoxy)-2,2,4,4-tetramethylcyclobutyl)-6-((1-((1-(3-(2,6-dioxopiperidin-3-yl)-4-oxo-3,4-dihydrobenzo[d][1,2,3]triazin-6-yl)azetidin-3-yl)methyl)piperidin-4-yl)ethynyl)nicotinamide] | 11
CC1(C)C(NC(=O)c2ccc(N3CC[C@H](CN4CCC5(CC4)CN(c4ccc6c(=O)n(C7CCC(=O)NC7=O)nnc6c4)C5)C3)nc2)C(C)(C)C1Oc1ccc(C#N)c(Cl)c1 (stereo partly drawn) [Example 189, N-((1r,3R)-3-(3-chloro-4-cyanophenoxy)-2,2,4,4-tetramethylcyclobutyl)-6-((3R)-3-((2-(3-(2,6-dioxopiperidin-3-yl)-4-oxo-3,4-dihydrobenzo[d][1,2,3]triazin-7-yl)-2,7-diazaspiro[3.5]nonan-7-yl)methyl)pyrrolidin-1-yl)nicotinamide] | 14
CC1(C)C(NC(=O)c2ccc(N3CC[C@H](CN4CCN(C5CCN(c6ccc7nnn(C8CCC(=O)NC8=O)c(=O)c7c6)CC5)CC4)C3)nc2)C(C)(C)C1Oc1ccc(C#N)c(Cl)c1 (stereo partly drawn) [Example 192, N-((1r,3R)-3-(3-chloro-4-cyanophenoxy)-2,2,4,4-tetramethylcyclobutyl)-6-((3R)-3-((4-(1-(3-(2,6-dioxopiperidin-3-yl)-4-oxo-3,4-dihydrobenzo[d][1,2,3]triazin-6-yl)piperidin-4-yl)piperazin-1-yl)methyl)pyrrolidin-1-yl)nicotinamide] | 22
CC1(C)C(NC(=O)c2ccc(C#CC3CCN(CC4CN(c5ccc6c(=O)n(C7CCC(=O)NC7=O)nnc6c5)C4)CC3)nc2)C(C)(C)C1Oc1ccc(C#N)c(Cl)c1 (stereo not shown) [Example 183, N-((1r,3r)-3-(3-chloro-4-cyanophenoxy)-2,2,4,4-tetramethylcyclobutyl)-6-((1-((1-(3-(2,6-dioxopiperidin-3-yl)-4-oxo-3,4-dihydrobenzo[d][1,2,3]triazin-7-yl)azetidin-3-yl)methyl)piperidin-4-yl)ethynyl)nicotinamide] | 7.5
CC1(C)C(NC(=O)c2ccc(N3CCC(CN4CC5(CCN(c6ccc7nnn(C8CCC(=O)NC8=O)c(=O)c7c6)CC5)C4)CC3)nc2)C(C)(C)C1Oc1ccc(C#N)c(Cl)c1 (stereo not shown) [Example 170, N-((1r,3r)-3-(3-chloro-4-cyanophenoxy)-2,2,4,4-tetramethylcyclobutyl)-6-(4-((7-(3-(2,6-dioxopiperidin-3-yl)-4-oxo-3,4-dihydrobenzo[d][1,2,3]triazin-6-yl)-2,7-diazaspiro[3.5]nonan-2-yl)methyl)piperidin-1-yl)nicotinamide] | 16
CC1(C)C(NC(=O)c2ccc(N3CCC(CN4CCN(C5CCN(c6ccc7nnn(C8CCC(=O)NC8=O)c(=O)c7c6)CC5)CC4)CC3)nc2)C(C)(C)C1Oc1ccc(C#N)c(Cl)c1 (stereo not shown) [Example 194, N-((1r,3r)-3-(3-chloro-4-cyanophenoxy)-2,2,4,4-tetramethylcyclobutyl)-6-(4-((4-(1-(3-(2,6-dioxopiperidin-3-yl)-4-oxo-3,4-dihydrobenzo[d][1,2,3]triazin-6-yl)piperidin-4-yl)piperazin-1-yl)methyl)piperidin-1-yl)nicotinamide] | 9
CC1(C)[C@H](NC(=O)c2ccc(N3CCC(CN4CCC5(CC4)CN(c4ccc6nnn(C7CCC(=O)NC7=O)c(=O)c6c4)C5)CC3)nc2)C(C)(C)[C@H]1Oc1ccc(C#N)c(Cl)c1 (stereo partly shown) [Example 172, N-((1r,3r)-3-(3-chloro-4-cyanophenoxy)-2,2,4,4-tetramethylcyclobutyl)-6-(4-((2-(3-(2,6-dioxopiperidin-3-yl)-4-oxo-3,4-dihydrobenzo[d][1,2,3]triazin-6-yl)-2,7-diazaspiro[3.5]nonan-7-yl)methyl)piperidin-1-yl)nicotinamide] | 7
CC1(C)[C@H](NC(=O)c2ccc(N3CCC(CCN4CCN(c5ccc6nnn(C7CCC(=O)NC7=O)c(=O)c6c5)CC4)CC3)nc2)C(C)(C)[C@H]1Oc1ccc(C#N)c(Cl)c1 (stereo partly shown) [Example 198, N-((1r,3r)-3-(3-chloro-4-cyanophenoxy)-2,2,4,4-tetramethylcyclobutyl)-6-(4-(2-(4-(3-(2,6-dioxopiperidin-3-yl)-4-oxo-3,4-dihydrobenzo[d][1,2,3]triazin-6-yl)piperazin-1-yl)ethyl)piperidin-1-yl)nicotinamide] | 10
CC1(C)C(NC(=O)c2ccc(N3CCC(CN4CC5(CCN(c6ccc7c(=O)n(C8CCC(=O)NC8=O)nnc7c6)CC5)C4)CC3)nc2)C(C)(C)C1Oc1ccc(C#N)c(Cl)c1 (stereo not shown) [Example 169, N-((1r,3r)-3-(3-chloro-4-cyanophenoxy)-2,2,4,4-tetramethylcyclobutyl)-6-(4-((7-(3-(2,6-dioxopiperidin-3-yl)-4-oxo-3,4-dihydrobenzo[d][1,2,3]triazin-7-yl)-2,7-diazaspiro[3.5]nonan-2-yl)methyl)piperidin-1-yl)nicotinamide] | 16
CC1(C)C(NC(=O)c2ccc(N3CCC(CN4CCN(c5ccc6nnn(C7CCC(=O)NC7=O)c(=O)c6c5)CC4)CC3)cc2)C(C)(C)C1Oc1ccc(C#N)c(Cl)c1 (stereo not shown) [Example 166, N-((1r,3r)-3-(3-chloro-4-cyanophenoxy)-2,2,4,4-tetramethylcyclobutyl)-4-(4-((4-(3-(2,6-dioxopiperidin-3-yl)-4-oxo-3,4-dihydrobenzo[d][1,2,3]triazin-6-yl)piperazin-1-yl)methyl)piperidin-1-yl)benzamide] | 13
